Assay results published in patent publication US20140057895A1, “INDAZOLE- AND PYRROLOPYRIDINE-DERIVATIVE AND PHARMACEUTICAL USE THEREOF” (priority 2011, published 2014).
Structures can show the parent of a compound that is named as a salt. Where two headings read alike, the source gives them in different places.

What was measured:
5-HT4 receptor = biological target: T1, 5-HT4 receptor (Cavia porcellus, UniProt O70528); assay: Test Example 3: Guinea pig 5-HT4 receptor binding assay, [3H]-GR113808, striatum membranes (Table 98)
T1 construct: striatum was isolated which was cryopreserved at −80° C. until use; from tissue; host or cells: guinea pig (Slc-Hartley) striatum membranes
Procedure, shortened: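 Striatal membranes from Slc-Hartley guinea pigs were incubated with 0.1 nM [3H]-GR113808 and test compounds in 50 mM Hepes pH 7.4 at 37° C for 30 min; nonspecific binding was defined with 30 μM serotonin. Bound radioactivity was collected by filtration, and IC50 was derived from inhibition of specific binding.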

human 5-HT4b receptor = biological target: T2, human 5-HT4b receptor (Homo sapiens, UniProt Q13639); assay: Test Example 4: Serotonin 4 (5-HT4) receptor agonist activity assay, cAMP HTRF in CHO cells (Table 100); type: cell-based; conditions: mean value; for Emax: CHO, 0.25 h, intrinsic activity, maximal activity of 5-HT defined as 100%, read-out: IA (%); for EC50: concentration showing 50% of IA
T2 construct: expressed in transfected cells; host or cells: CHO cells (G418 selection)
Procedure: The cAMP measurement test used herein was carried out by using CISBIO HTRF (trademark) cAMP Hirange kit according to the manufacturer's instructions attached therewith.
CHO cells expressing human 5-HT4b receptor were incubated in Medium 1 [DMEM/1% NEAA, 1% penicillin/streptomycin (P/S), 0.2 mg/mL GENETICIN (G418), 10% FBS] at 37° C. under 5% CO2 condition. Then, the cells were put into Medium 2 (DMEM/10000 cut FBS, G-418, P/S, NEAA) for 1 to 2 hours, and collected by treating with trypsin containing EDTA. The collected cells were suspended in Assay Buffer 1 [100 mM Hanks/HEPES buffer (pH 7.4)], the suspended cells were mixed with the testing compound on 384-well plates, and the cells were incubated at 31° C. for 15 minutes. To the cells were added cAMP-cryptate solution and cAMP-d2 solution, and they were incubated at room temperature for 1 hour. Then, time-resolved fluorescence was measured by En Vision (excitation wavelength: 330 nm, fluorescence wavelength: 620/665 nm).
An intrinsic activity of the compound [IA (%)] and a concentration showing 50% of IA [EC50 (nM)] were calculated from the obtained results. In particular, the intrinsic activity (IA) was calculated on the basis of the maximal activity of 5-HT (measured from 10^−11 M to 10^−7 M) defined as 100%.
In the following table, the compounds used in the test are shown in numbers which correspond to the Example numbers above where the preparations of the compounds are described.

[1] = Guinea pig 5-HT4 receptor binding assay, [3H]-GR113808, striatum membranes, mean value of each group, read-out: IC50

T2 sequence (Q13639 whole entry): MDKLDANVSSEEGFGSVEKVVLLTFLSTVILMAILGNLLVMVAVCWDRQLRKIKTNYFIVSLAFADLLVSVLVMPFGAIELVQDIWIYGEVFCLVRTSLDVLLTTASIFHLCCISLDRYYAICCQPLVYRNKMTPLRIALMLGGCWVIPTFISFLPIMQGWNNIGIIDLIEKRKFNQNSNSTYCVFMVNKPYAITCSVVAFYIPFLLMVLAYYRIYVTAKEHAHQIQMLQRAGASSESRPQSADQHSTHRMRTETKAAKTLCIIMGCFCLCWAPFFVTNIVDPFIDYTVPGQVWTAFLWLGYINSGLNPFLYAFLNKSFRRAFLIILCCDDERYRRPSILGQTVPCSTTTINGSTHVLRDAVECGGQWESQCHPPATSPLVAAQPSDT
T1 sequence (O70528 whole entry): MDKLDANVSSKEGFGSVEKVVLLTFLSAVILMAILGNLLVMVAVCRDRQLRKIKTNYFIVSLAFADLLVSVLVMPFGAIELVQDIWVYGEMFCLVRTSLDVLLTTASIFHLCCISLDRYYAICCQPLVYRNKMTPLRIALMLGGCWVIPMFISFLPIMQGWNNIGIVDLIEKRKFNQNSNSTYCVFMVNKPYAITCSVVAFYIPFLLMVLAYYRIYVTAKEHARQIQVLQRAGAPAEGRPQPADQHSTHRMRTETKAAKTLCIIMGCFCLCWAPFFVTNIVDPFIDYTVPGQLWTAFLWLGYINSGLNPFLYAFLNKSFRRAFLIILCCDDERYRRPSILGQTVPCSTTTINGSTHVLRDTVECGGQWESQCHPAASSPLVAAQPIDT

Structure (SMILES)	IC50 (5-HT4 receptor; [1]) [nM]	Emax (human 5-HT4b receptor) [%]	EC50 (human 5-HT4b receptor) [nM]	IC50 (5-HT4 receptor) [nM]
CCc1nn(-c2noc(C3CCN(CC4CCOCC4)CC3)n2)c2cc(C)ccc12 [Example 435, 3-ethyl-6-methyl-1-{5-[1-(tetrahydro-2H-pyran-4-ylmethyl)piperidin-4-yl]-1,2,4-oxadiazol-3-yl}-1H-indazole trifluoroacetate]	44.7	1.6	11.9	
CC(C)c1nn(-c2noc(C3CCN(C4CCC4)CC3)n2)c2ccccc12 [Example 420, 1-[5-(1-cyclobutylpiperidin-4-yl)-1,2,4-oxadiazol-3-yl]-3-(propan-2-yl)-1H-indazole trifluoroacetate]	73.9	85.6	8.2	
CCc1nn(-c2noc(C3CCN(C4CCN(C(=O)COC)CC4)CC3)n2)c2c(F)cccc12 [Example 237, 1-{4-[3-(3-ethyl-7-fluoro-1H-indazol-1-yl)-1,2,4-oxadiazol-5-yl]-1,4′-bipiperidin-1′-yl}-2-methoxyethanone hydrochloride]	< 20	51.9	9.7	
COCC(=O)N1CC(CN2CCC(c3nc(-n4nc(C(C)C)c5cccc(F)c54)no3)CC2)C1 [Example 221, 1-{3-[(4-{3-[7-fluoro-3-(propan-2-yl)-1H-indazol-1-yl]-1,2,4-oxadiazol-5-yl}piperidin-1-yl)methyl]azetidin-1-yl}-2-methoxyethanone hydrochloride]	< 20	86.1	6.1	
CC(C)c1nn(-c2noc(C3CCN(C[C@H]4CCCN4C(=O)CO)CC3)n2)c2c(F)cccc12 [Example 529, 1-{(2R)-2-[(4-{3-[7-fluoro-3-(propan-2-yl)-1H-indazol-1-yl]-1,2,4-oxadiazol-5-yl}piperidin-1-yl)methyl]pyrrolidin-1-yl}-2-hydroxyethanone hydrochloride]	< 20	95.5	1.2	
CCc1nn(-c2noc(C3CCN(C[C@H]4CCN(S(C)(=O)=O)C4)CC3)n2)c2c(F)cccc12 [Example 216, 3-ethyl-7-fluoro-1-[5-(1-{[(3R)-1-(methylsulfonyl)pyrrolidin-3-yl]methyl}piperidin-4-yl)-1,2,4-oxadiazol-3-yl]-1H-indazole]	< 20	62.3	4.6	
CCc1nn(-c2noc(C3CCN(C4CCCC4)CC3)n2)c2c(F)c(F)ccc12 [Example 447, 1-[5-(1-cyclopentylpiperidin-4-yl)-1,2,4-oxadiazol-3-yl]-3-ethyl-6,7-difluoro-1H-indazole-trifluoroacetate]	< 20	56.8	12.2	
CC(C)c1nn(-c2noc(C3CCN(C4CCN(C(=O)CO)CC4C)CC3)n2)c2c(F)cccc12 (stereo not drawn) [Example 530, 1-(4-{3-[7-fluoro-3-(propan-2-yl)-1H-indazol-1-yl]-1,2,4-oxadiazol-5-yl}-3′-methyl-1,4′-bipiperidin-1′-yl)-2-hydroxyethanone]	< 20	97	3.1	
CC(C)c1nn(-c2noc(C3(O)CCN(C4CCN(C(=O)CO)CC4)CC3)n2)c2c(F)cccc12 [Example 551, 1-(4-{3-[7-fluoro-3-(propan-2-yl)-1H-indazol-1-yl]-1,2,4-oxadiazol-5-yl}-4-hydroxy-1,4′-bipiperidin-1′-yl)-2-hydroxyethanone]		70.4	18.5	81.9
CCc1nn(-c2noc(C3CCN(C4CCN(C(=O)COC)CC4)CC3)n2)c2c(F)c(F)ccc12 [Example 461, 1-{4-[3-(3-ethyl-6,7-difluoro-1H-indazol-1-yl)-1,2,4-oxadiazol-5-yl]-1,4′-bipiperidin-1′-yl}-2-methoxyethanone trifluoroacetate]	< 20	65.5	4.4	
CCc1nn(-c2noc(C3CCN(CC4CN(C(C)=O)C4)CC3)n2)c2c(F)cccc12 [Example 223, 1-[3-({4-[3-(3-ethyl-7-fluoro-1H-indazol-1-yl)-1,2,4-oxadiazol-5-yl]piperidin-1-yl}methyl)azetidin-1-yl]ethanone hydrochloride]	< 20	72.7	3.4	
CC(C)c1nn(-c2noc(CCCN3CCCCC3)n2)c2c(F)cccc12 [Example 394, 7-fluoro-1-{5-[3-(piperidin-1-yl)propyl]-1,2,4-oxadiazol-3-yl}-3-(propan-2-yl)-1H-indazole]	< 20	101	3.1	
CC(C)c1nn(-c2noc(C3CCN([C@@H]4C[C@H]5CC[C@@H](C4)N5C(=O)CO)CC3)n2)c2c(F)cccc12 [Example 533, 1-[(3-exo)-3-(4-{3-[7-fluoro-3-(propan-2-yl)-1H-indazol-1-yl]-1,2,4-oxadiazol-5-yl}piperidin-1-yl)-8-azabicyclo[3.2.1]oct-8-yl]-2-hydroxyethanone]		102	3.8	< 20
CC(=O)N1CCC(N2CCC(c3nc(-n4nc(C(C)C)c5ccc(F)c(F)c54)no3)CC2)CC1 [Example 464, 1-(4-{3-[6,7-difluoro-3-(propan-2-yl)-1H-indazol-1-yl]-1,2,4-oxadiazol-5-yl}-1,4′-bipiperidin-1′-yl}ethanone trifluoroacetate]	< 20	70	31.2	
CCc1nn(-c2noc(C3CCN(C[C@@H]4CCN(S(C)(=O)=O)C4)CC3)n2)c2c(F)cccc12 [Example 203, 3-ethyl-7-fluoro-1-[5-(1-{[(3S)-1-(methylsulfonyl)pyrrolidin-3-yl]methyl}piperidin-4-yl)-1,2,4-oxadiazol-3-yl]-1H-indazole]	< 20	71.8	1.1	
COC(=O)N1CC(CN2CCC(c3nc(-n4nc(C(C)C)c5cccc(F)c54)no3)CC2)C1 [Example 220, methyl 3-[(4{3-[7-fluoro-3-(propan-2-yl)-1H-indazol-1-yl]-1,2,4-oxadiazol-5-yl}piperidin-1-yl)methyl]azetidine-1-carboxylate hydrochloride]	< 20	92.4	4.8	
CC(=O)N1CCC(N2CCC(O)(c3nc(-n4nc(C(C)C)c5cccc(F)c54)no3)CC2)CC1 [Example 457, 1-(4-{3-[7-fluoro-3-(propan-2-yl)-1H-indazol-1-yl]-1,2,4-oxadiazol-5-yl}-4-hydroxy-1,4′-bipiperidin-1′-yl)ethanone]		72.2	12.7	85.3
CCc1nn(-c2noc(C3CCN(CC4CCOCC4)CC3)n2)c2c(F)c(F)ccc12 [Example 449, 3-ethyl-6,7-difluoro-1-{5-[1-(tetrahydro-2H-pyran-4-ylmethyl)piperidin-4-yl]-1,2,4-oxadiazol-3-yl}-1H-indazole trifluoroacetate]	< 20	76.4	31.2	
CCc1nn(-c2noc(C3CCN(C[C@H]4CCN(C(=O)CO)C4)CC3)n2)c2c(F)cccc12 [Example 247, 1-[(3R)-3-({4-[3-(3-ethyl-7-fluoro-1H-indazol-1-yl)-1,2,4-oxadiazol-5-yl]piperidin-1-yl}methyl)pyrrolidin-1-yl]-2-hydroxyethanone]	< 20	79	12.7	
CCc1nn(-c2noc(C3CCN(C4CCN(C(=O)CO)CC4)CC3)n2)c2c(F)cccc12 [compound 244, hydrochloride]	< 20	63.5	3.9	
CCc1nn(-c2noc(C3CCN(CC4CN(C(=O)CO)C4)CC3)n2)c2c(F)cccc12 [compound 250, 1-[3-({4-[3-(3-ethyl-7-fluoro-1H-indazol-1-yl)-1,2,4-oxadiazol-5-yl]piperidin-1-yl}methyl)azetidin-1-yl]-2-hydroxyethanone]	< 20	79.7	3.5	
CCc1nn(-c2noc(C3CCN(CC4CN(C(=O)OC)C4)CC3)n2)c2c(F)c(F)ccc12 [Example 470, methyl 3-({4-[3-(3-ethyl-6,7-difluoro-1H-indazol-1-yl)-1,2,4-oxadiazol-5-yl]piperidin-1-yl}methyl)azetidine-1-carboxylate trifluoroacetate]	30	70.4	13.4	
CC(C)c1nn(-c2noc(C3CCN(C(C)C)CC3)n2)c2c(F)c(F)ccc12 [Example 450, 6,7-difluoro-3-(propan-2-yl)-1-{5-[1-(propan-2-yl)piperidin-4-yl]-1,2,4-oxadiazol-3-yl}-1H-indazole trifluoroacetate]	< 20	87.7	15.8	
